From publication PMC11369183, “PARP inhibition with rucaparib alone followed by combination with atezolizumab: Phase Ib COUPLET clinical study in advanced gynaecological and triple-negative breast cancers” (British Journal of Cancer, 2024)
Like-named read-outs stand apart in the source and are kept apart here.

Key:
[1] = tested on: ovarian cancer, patients with measurable disease; set-up: method as in PMID 32073956; details: olaparib alone; cited from earlier work
[2] = tested on: DNA damage repair signature; test: RNA sequencing signature in longitudinal tumour biopsies: DDR; assay type: in vivo, human; details: after the rucaparib run-in
From the text: (§1) All patients (Parts 1 and 2) were required to have sufficient archival formalin-fixed paraffin-embedded (FFPE) tumour tissue available for planned analyses. […] A further biopsy at disease progression was optional. Tumour and biomarker characteristics are described according to central review result. However, patients could be enrolled or assigned to a cohort based on local test results, to avoid delaying treatment initiation. […] Patients were ineligible if they had previously received treatment with a PARPi, CD137 agonist, or other ICI (including but not limited to anti-PD-1, anti-PD-L1, and anti-CTLA-4 therapeutic antibodies). […] RNA sequencing reads were first aligned to ribosomal RNA sequences to remove ribosomal reads. The remaining reads were aligned to the human reference genome (National Center for Biotechnology Information Build 38) using Genomic Short-read Nucleotide Alignment Program (GSNAP) version 2013-11-01. To quantify gene expression levels, the number of reads mapped to the exons of each RefSeq gene was calculated using the functionality provided by the R/Bioconductor package GenomicAlignments. For each cohort, raw counts for genes were trimmed mean of M-values (TMM)-normalised based on size factors as calculated with CalcNormFactors in the edgeR package. […]

[3] = tested on: CD274 (PD-L1 gene); test: RNA sequencing in longitudinal tumour biopsies: CD274; assay type: in vivo, human; details: after rucaparib run-in, responders (not in non-responders)
From the text: as §1

[4] = clinical; set-up: species or system human; details: in vivo; for Cmax: female
From the text: (§2) No formal statistical analyses were planned.

[5] = tested on: Apoptosis signature; test: RNA sequencing signature in longitudinal tumour biopsies: apoptosis; assay type: in vivo, human; details: during run-in, responding patients
From the text: as §1

[6] = tested on: cGAS-STING pathway; test: RNA sequencing signature in longitudinal tumour biopsies: cGAS-STING; assay type: in vivo, human; details: during rucaparib run-in, in four of five responders
From the text: as §1

[7] = From the text: The primary objective was to evaluate the safety and tolerability of the combination by identifying dose-limiting toxicities (DLTs; Supplementary Table 1) that determined the maximum tolerated dose and identifying a potential recommended dose and schedule for subsequent assessments. Safety endpoints included the incidence, nature, and severity of adverse events (AEs) and DLTs according to National Cancer Institute Common Terminology Criteria for Adverse Events version 4.03. Secondary efficacy endpoints comprised objective response rate (ORR) according to Response Evaluation Criteria in Solid Tumours (RECIST) version 1.1, duration of response, progression-free survival (PFS) according to RECIST version 1.1, and overall survival (OS). The PK objective was to determine the PK of rucaparib and atezolizumab combination therapy in plasma and serum, with pre-specified parameters including steady-state maximum concentration observed (Cmax), time to maximum concentration (Tmax), and area under the concentration–time curve (AUC) for rucaparib and serum concentration of atezolizumab in Part 1, and minimum concentration during the dosing interval or trough concentration (Cmin) of rucaparib and serum concentration of atezolizumab in Part 2. The incidence of antidrug antibodies (ADAs) to atezolizumab was an additional secondary endpoint. The study also included pre-specified exploratory biomarker objectives: to evaluate predictive and pharmacodynamic biomarkers of response or resistance to combined rucaparib and atezolizumab therapy in tumour biopsies and blood; and to evaluate additional biomarkers of HRD and novel biomarkers and correlate them with response and/or clinical outcome, including efficacy and safety. No formal statistical analyses were planned.
In Part 1 (dose-finding phase), patients with histologically confirmed ovarian or endometrial cancer who had received at least one prior line of therapy for metastatic disease received varying doses of oral rucaparib (400 mg twice daily in the first cohort, 600 mg twice daily in the second cohort, decreasing to 500 mg in the third cohort if necessary) in combination with a fixed dose of intravenous atezolizumab 1200 mg on Day 1. Cycles were repeated every 21 days and continued until unacceptable toxicity or disease progression if, in the investigator’s opinion, the patient would not derive clinical benefit from continued study treatment. It was planned to enroll ~six to 18 patients in up to three dose cohorts. […] In Part 2 (dose-expansion phase), the recommended Phase II dose was evaluated further for safety, PK, and preliminary activity in two tumour-specific expansion cohorts with an initially targeted enrollment of up to ~50 patients in total. In Cohort 1, eligible patients had platinum-sensitive high-grade serous or grade 3 endometrioid epithelial ovarian, fallopian tube, or primary peritoneal cancer with tumours harbouring a deleterious germline or somatic BRCA mutation (tBRCAmut, Arm A) or a tBRCA-like molecular signature (tBRCA-wild type [wt]/loss of heterozygosity [LOH]high, Arm B). Patients had received one to two prior platinum-containing regimens, with progression >6 months after the last dose of the most recent platinum therapy. In Cohort 2 (Arm C), patients had tBRCAmut or tBRCAwt/LOHhigh TNBC and had received at least one prior line of chemotherapy (without cancer immunotherapy) in the metastatic setting. Part 2 treatment comprised a 21-day run-in period of single-agent rucaparib at the identified recommended rucaparib starting dose (run-in), followed by rucaparib in combination with intravenous atezolizumab 1200 mg on Day 1 (combination). Cycles were repeated every 21 days.

[8] = tested on: CD8 T-cell activity signature; test: RNA sequencing signature in longitudinal tumour biopsies: CD8 T-cell activity; assay type: in vivo, human; details: during rucaparib run-in, in four of five responders
From the text: as §1

[9] = Atezolizumab serum concentration (sparse PK sampling); assay type: in vivo
From the text: as §2

[10] = tested on: antidrug antibodies (ADAs) to atezolizumab; test: Incidence of antidrug antibodies (ADAs) to atezolizumab; assay type: in vivo, human; details: one of 28 patients evaluable for ADA
From the text: as §2

[11] = Part 2 TNBC Arm C, n = 5, run-in
[12] = Part 2 ovarian cancer Arms A + B, n = 14, run-in
[13] = Cycle 1 arithmetic mean (CV), sparse PK sampling, Part 2 ovarian cancer Arm B (tBRCAwt/LOHhigh), n = 4

Q: With O=C(c1cc(Cc2n[nH]c(=O)c3ccccc23)ccc1F)N1CCN(C(=O)C2CC2)CC1 [olaparib] as the compound, how does the ORR [1] read?
A: 72%

Q: For CNCc1ccc(-c2[nH]c3cc(F)cc4c3c2CCNC4=O)cc1 [rucaparib], which “Patients with decreased DDR signature” value ([2]; non-responders (by <10%)) is on record?
A: one of four

Q: What about the “Patients with decreased DDR signature” value ([2]; responders) of the same compound?
A: four of five

Q: And the “Patients with increased CD274 expression” value [3]?
A: three of five

Q: What about the Cmax ([4]; human, 400 mg) of the same compound?
A: 2270 ng/mL

Q: What about the Cmax ([4]; human, 600 mg) of the same compound?
A: 3180 ng/mL

Q: What about the “Inter-individual variability in exposure, AUC” value ([4]; human) of the same compound?
A: 21.2–41.6%

Q: What about the “Inter-individual variability in exposure, Cmax” value ([4]; human) of the same compound?
A: 27.4–46.8%

Q: What about the “Inter-individual variability in exposure, Cmin” value ([4]; human) of the same compound?
A: 28.6–88.7%

Q: And the Tmax ([4]; human)?
A: 1.5 to 6 h

Q: What about the “Rucaparib AUClast” value ([4]; human, 400 mg) of the same compound?
A: (n = 2) 15 072 (21.2) h·ng/mL

Q: And the “Rucaparib AUClast” value ([4]; human, 600 mg)?
A: (n = 6) 22 082 (41.6) h·ng/mL

Q: What about the “Rucaparib Cmin” value ([4]; human, 21 days) of the same compound?
A: (n = 5) 1180 (52.5) ng/mL

Q: What about the “Dose proportionality of kinetics” value [4] of the same compound?
A: dose-proportional kinetics

Q: And the “Patients with increased apoptosis signature expression” value [5]?
A: three of five

Q: What about the “Increase in cGAS-STING pathway activation” value [6] of the same compound?
A: > 100%

Q: What about the “Grade 5 AE” value [7, 11] of the same compound?
A: 0 n (%)

Q: And the “Grade 5 AE” value [7, 12]?
A: 0 n (%)

Q: What about the “AE leading to treatment modification/interruption: Rucaparib” value ([7]; human, in vivo) of the same compound?
A: 1 (20) n (%)

Q: What about the “AE leading to treatment discontinuation” value ([7]; human, in vivo, 21 days) of the same compound?
A: 0 n (%)

Q: What about the “AE leading to treatment modification/interruption” value ([7]; human, in vivo, 21 days) of the same compound?
A: 1 (20) n (%)

Q: And the “AE leading to treatment modification/interruption: Rucaparib” value ([7]; human, in vivo, 21 days)?
A: 1 (20) n (%)

Q: What about the “Any grade AE” value ([7]; human, in vivo, 21 days) of the same compound?
A: 5 (100) n (%)

Q: What about the “Grade 3/4 AE” value ([7]; human, in vivo, 21 days) of the same compound?
A: 2 (40) n (%)

Q: What about the “Treatment-related AE” value ([7]; human, in vivo, 21 days) of the same compound?
A: 4 (80) n (%)

Q: What about the “Increase in CD8 + T-cell activity” value [8] of the same compound?
A: > 50%

Q: Which results are given for atezolizumab?
A: Atezolizumab Cmin ([9]; Cycle 1 arithmetic mean (CV), sparse PK sampling, Part 1 Cohort 1, n = 3): (n = 3) 84.3 (32.0) μg/mL; Atezolizumab Cmin ([9]; Cycle 1 arithmetic mean (CV), sparse PK sampling, Part 1 Cohort 2, n = 5): (n = 5) 96.0 (23.8) μg/mL; Atezolizumab Cmin ([9]; Cycle 1 arithmetic mean (CV), sparse PK sampling, Part 2 TNBC Arm C, n = 4): (n = 4) 98.7 (26.3) μg/mL; Atezolizumab Cmin ([9]; Cycle 1 arithmetic mean (CV), sparse PK sampling, Part 2 ovarian cancer Arm A (tBRCAmut), n = 10): (n = 10) 77.2 (22.1) μg/mL; Atezolizumab Cmax [9, 13]: (n = 4) 438 (9.4) μg/mL; Atezolizumab Cmin [9, 13]: (n = 4) 95.7 (17.9) μg/mL; Trough concentrations (Ctrough) ([9]; all trough concentrations exceeded the target concentration for maximal receptor occupancy): > 6000 ng/mL; Inter-patient variability, Cmax ([9]; atezolizumab): 7.0–35.3%; Inter-patient variability, Cmin ([9]; atezolizumab): 17.9–32.0%; AE leading to treatment modification/interruption: Atezolizumab ([7]; Part 1 Cohort 1 (rucaparib 400 mg), n = 3): 1 (33) n (%); AE leading to treatment modification/interruption: Atezolizumab ([7]; Part 1 Cohort 2 (rucaparib 600 mg), n = 6): 1 (17) n (%); AE leading to treatment modification/interruption: Atezolizumab ([7]; Part 2 TNBC Arm C, n = 5, post run-in): 1 (20) n (%); AE leading to treatment modification/interruption: Atezolizumab [7, 11]: 0 n (%); AE leading to treatment modification/interruption: Atezolizumab ([7]; Part 2 ovarian cancer Arms A + B, n = 14, post run-in): 5 (36) n (%); AE leading to treatment modification/interruption: Atezolizumab [7, 12]: 0 n (%); Patients positive for treatment-emergent ADAs [10]: 4%
